{
  "source": "patent US12059393B2",
  "about": "“Compositions for topical treatment of radiation dermatitis” (Akos Biosciences, Inc, priority 2022, dated 2024)",
  "key": {"[1]": {"experiment": "LDH cytotoxicity assay in 3D in vitro skin model", "type": "cell-based", "conditions": "no UV, topical 24 h", "procedure": "(§1) A 3D in vitro skin model containing epidermal keratinocytes and dermal fibroblasts was used. Some tissues were irradiated with 200 mJ UVB/cm^2. Test materials were applied topically for 24 hours (after UVB exposure) and an MTT assay was used to check the viability of cells. The following treatment groups were used: • olive oil (no CBD); • CBD in olive oil in concentrations of 30, 60, 120, and 250 mg/mL; • No treatment; and • Triton-X® as positive control.\n(§2) Cytotoxicity was assessed with a lactate dehydrogenase (LDH) assay using media collected from the wells of the tissues. Increased LDH activity is an indicator of damaged or dead cells.\n(§3) The results are provided in the following Table A, with the untreated group defining 0% cytotoxicity and Triton-X defining 100% cytotoxicity. Lower cytotoxicity is better. * indicates p≤0.05 and ** indicates p≤0.01 statistical significance after performing unpaired t-test."}, "[2]": {"tested_on": "3D in vitro skin model containing epidermal keratinocytes and dermal fibroblasts", "experiment": "LDH cytotoxicity assay in 3D in vitro skin model", "type": "cell-based", "conditions": "light or radiation study, UV (200 mJ UVB/cm^2), topical 24 h", "procedure": "as §1, §2, §3"}, "[3]": {"tested_on": "3D in vitro skin model containing epidermal keratinocytes and dermal fibroblasts", "experiment": "Gene expression changes (178 genes) in 3D in vitro skin model", "type": "cell-based", "conditions": "for Regulated genes (function): UV exposed tissues, baseline Group K", "procedure": "as §1\nNext, changes in gene expression for 178 genes were measured in tissues. Statistical significance was determined using unpaired t-test, P<0.05, N=4."}, "[4]": {"tested_on": "acute radiation-induced dermatitis", "experiment": "Skin redness scoring in mouse radiation dermatitis model", "type": "in vivo, Balb/c mice", "design": "key to Redness score (mean): visual redness score, scale 0 to 3 in 0.5 increments", "conditions": "for Redness score % Change CBD vs. Group 3: vs olive oil only; for Redness score % Change CBD vs. Group 2: vs radiation only", "procedure": "A study was performed on mice to determine the efficacy of topically-dosed CBD in an olive oil vehicle for the treatment of acute radiation-induced dermatitis. Three different CBD dosages were used— 30 mg/mL (3 wt %), 120 mg/mL (12 wt %), and 250 mg/mL (25 wt %).\n144 female Balb/c mice with an average starting body weight (±SEM) of 17.96±0.12 grams were randomized into six (6) groups of 24 animals each, as follows:\nThe control group (Group 1) was not irradiated. The animals in Groups 2-6 were anesthetized via a single intraperitoneal injection of xylazine and ketamine prior to being administered a single dose of 30 Grays (Gy) of radiation directed at a 2 cm×4 cm patch of shaved dorsal skin on Day 0. Radiation was generated by a 160 kVp (15-ma) X-ray source at a focal distance of 10 cm, hardened with a 0.35 mm Cu filtration system at a rate of approximately 3.2 Gy/minute.\nDosing for animals in Groups 3-6 began on Day 0 immediately after radiation. Treatments were administered topically (0.1 mL per animal) daily from Days 0-28.\nStarting on Day 8 and continuing every other day thereafter (Days 8-28), each animal was evaluated for skin redness and dermatitis, and photographed for subsequent blinded scoring of dermatitis at the completion of the study. Body weight was taken daily.\nSkin redness was scored visually by comparison to a photographic scale, and reported on a scale of 0 to 3 in 0.5 unit increments. The scale is described in the table below:\nData were evaluated using one-way ANOVA with Dunnett's multiple comparisons test to compare all groups to the vehicle control group using GraphPad Prism 8.4.3 (La Jolla, CA Duration of dermatitis data was evaluated using the Chi-square test to compare all groups to the vehicle-control group and radiation only group using SigmaPlot 11.0 (Systat Software, Inc.). Statistical significance was achieved when p<0.05."}},
  "data": [
    {"smiles": "C=C(C)[C@@H]1CCC(C)=C[C@H]1c1c(O)cc(CCCCC)cc1O", "note": "[CBD, 2-[(1R,6R)-6-Isopropenyl-3-methylcyclohex-2-en-1-yl]-5-pentylbenzene-1,3-diol]", "values": [
      {"measurement": "cytotoxicity at 24 h, 30 mg/mL", "setting": "[1]; 30 mg/mL CBD in olive oil, untreated=0%, Triton-X=100%", "value": 4, "unit": "%"},
      {"measurement": "cytotoxicity at 24 h, 60 mg/mL", "setting": "[1]; 60 mg/mL CBD in olive oil", "value": 4, "unit": "%"},
      {"measurement": "cytotoxicity at 24 h, 120 mg/mL", "setting": "[1]; 120 mg/mL CBD in olive oil", "value": 5, "unit": "%"},
      {"measurement": "cytotoxicity at 24 h, 250 mg/mL", "setting": "[1]; 250 mg/mL CBD in olive oil", "value": 11, "unit": "%"},
      {"measurement": "cytotoxicity at 30000 µg/mL", "setting": "[2]; 30 mg/mL CBD in olive oil", "value": 17, "unit": "%"},
      {"measurement": "cytotoxicity at 60000 µg/mL", "setting": "[2]; 60 mg/mL CBD in olive oil", "value": 19, "unit": "%"},
      {"measurement": "cytotoxicity at 120000 µg/mL", "setting": "[2]; 120 mg/mL CBD in olive oil", "value": 16, "unit": "%"},
      {"measurement": "cytotoxicity at 250000 µg/mL", "setting": "[2]; 250 mg/mL CBD in olive oil", "value": 16, "unit": "%"},
      {"measurement": "Regulated genes (function)", "setting": "[3]; 30 mg/mL CBD in olive oil (Group G)", "value": "associated with cell renewal, tissue remodeling, anti-apoptotic pathway, and extracellular matrix integrity"},
      {"measurement": "Regulated genes (function)", "setting": "[3]; 120 mg/mL CBD in olive oil (Group I)", "value": "associated with antioxidant/stress response"},
      {"measurement": "Genes with FC of 2 or greater", "setting": "[3]; CBD in olive oil 30-250 mg/mL (Groups B-E), healthy tissues, baseline Group A (olive oil)", "value": "four"},
      {"measurement": "Redness score (mean)", "setting": "[4]; CBD-treated groups condensed (30, 120, 250 mg/mL), Day 8", "value": 0.81},
      {"measurement": "Redness score (mean)", "setting": "[4]; CBD-treated groups condensed, Day 10", "value": 1.06},
      {"measurement": "Redness score (mean)", "setting": "[4]; CBD-treated groups condensed, Day 12", "value": 1.07},
      {"measurement": "Redness score (mean)", "setting": "[4]; CBD-treated groups condensed, Day 14", "value": 1.16},
      {"measurement": "Redness score (mean)", "setting": "[4]; CBD-treated groups condensed, Day 16", "value": 1.43},
      {"measurement": "Redness score (mean)", "setting": "[4]; CBD-treated groups condensed, Day 18", "value": 1.40},
      {"measurement": "Redness score (mean)", "setting": "[4]; CBD-treated groups condensed, Day 20", "value": 1.43},
      {"measurement": "Redness score (mean)", "setting": "[4]; CBD-treated groups condensed, Day 22", "value": 1.50},
      {"measurement": "Redness score (mean)", "setting": "[4]; CBD-treated groups condensed, Day 24", "value": 1.18},
      {"measurement": "Redness score (mean)", "setting": "[4]; CBD-treated groups condensed, Day 26", "value": 1.04},
      {"measurement": "Redness score (mean)", "setting": "[4]; CBD-treated groups condensed, Day 28", "value": 0.89},
      {"measurement": "Mean redness scores compared against Group 2 (radiation only)", "setting": "[4]; CBD-treated groups considered together, p<0.05", "value": "statistically significant reduction"},
      {"measurement": "Redness scores compared to Group 2", "setting": "[4]; CBD-treated groups, after Day 14", "value": "consistently lower"},
      {"measurement": "Redness scores compared to Group 3 (olive oil only)", "setting": "[4]; CBD-treated groups, all time points", "value": "consistently lower"},
      {"measurement": "Redness score % Change CBD vs. Group 3", "setting": "[4]; Day 8", "value": "−16.13", "unit": "%"},
      {"measurement": "Redness score % Change CBD vs. Group 3", "setting": "[4]; Day 10", "value": "−30.61", "unit": "%"},
      {"measurement": "Redness score % Change CBD vs. Group 3", "setting": "[4]; Day 12", "value": "−32.68", "unit": "%"},
      {"measurement": "Redness score % Change CBD vs. Group 3", "setting": "[4]; Day 14", "value": "−27.45", "unit": "%"},
      {"measurement": "Redness score % Change CBD vs. Group 3", "setting": "[4]; Day 16", "value": "−29.93", "unit": "%"},
      {"measurement": "Redness score % Change CBD vs. Group 3", "setting": "[4]; Day 18", "value": "−21.71", "unit": "%"},
      {"measurement": "Redness score % Change CBD vs. Group 3", "setting": "[4]; Day 20", "value": "−23.70", "unit": "%"},
      {"measurement": "Redness score % Change CBD vs. Group 3", "setting": "[4]; Day 22", "value": "−32.08", "unit": "%"},
      {"measurement": "Redness score % Change CBD vs. Group 3", "setting": "[4]; Day 24", "value": "−25.44", "unit": "%"},
      {"measurement": "Redness score % Change CBD vs. Group 3", "setting": "[4]; Day 26", "value": "−30.56", "unit": "%"},
      {"measurement": "Redness score % Change CBD vs. Group 3", "setting": "[4]; Day 28", "value": "−42.34", "unit": "%"},
      {"measurement": "Redness score % Change CBD vs. Group 2", "setting": "[4]; Day 8", "value": 87.50, "unit": "%"},
      {"measurement": "Redness score % Change CBD vs. Group 2", "setting": "[4]; Day 12", "value": 3.83, "unit": "%"},
      {"measurement": "Redness score % Change CBD vs. Group 2", "setting": "[4]; Day 14", "value": "−3.65", "unit": "%"},
      {"measurement": "Redness score % Change CBD vs. Group 2", "setting": "[4]; Day 16", "value": "−21.32", "unit": "%"},
      {"measurement": "Redness score % Change CBD vs. Group 2", "setting": "[4]; Day 18", "value": "−24.73", "unit": "%"},
      {"measurement": "Redness score % Change CBD vs. Group 2", "setting": "[4]; Day 20", "value": "−25.07", "unit": "%"},
      {"measurement": "Redness score % Change CBD vs. Group 2", "setting": "[4]; Day 22", "value": "−34.00", "unit": "%"},
      {"measurement": "Redness score % Change CBD vs. Group 2", "setting": "[4]; Day 24", "value": "−42.28", "unit": "%"},
      {"measurement": "Redness score % Change CBD vs. Group 2", "setting": "[4]; Day 26", "value": "−45.44", "unit": "%"},
      {"measurement": "Redness score % Change CBD vs. Group 2", "setting": "[4]; Day 28", "value": "−45.68", "unit": "%"}
    ]}
  ]
}
